In patent US20070020193A1, “Dronabinol compositions and methods for using same” (priority 2005, published 2007):
Several values for one entry are separate records, joined by “and”; a condition that tells them apart may be missing. Equal values may be shown once. Entries after “also recorded” stand apart in the source; their conditions may differ.

What was measured:
[1] = tested on: healthy subjects; set-up: species or system human; conditions: in vivo
[2] = tested on: healthy subjects; assay: Example 2: 12-lead ECG and telemetric cardiac monitoring; format: in vivo, human; conditions: for heart rate, mean value (ECG) / heart rate, mean increase above baseline / heart rate, mean increase above pre-dose value on Day 1: Day 1, 20 minutes after dosing; for time for heart rate to return to baseline after dosing: Day 1
Protocol: Adverse events were recorded based on original descriptions from subject responses to queries. Complete medical histories and physical examinations were conducted. Vital signs were monitored, ECGs were recorded along with pulmonary function tests and laboratory examinations.
Listings of values for each subject were presented with abnormal or out of range values for vital signs, laboratory assays, ECGs, pulmonary function tests, and physical examinations. Descriptive statistics (n, mean, standard deviation (SD), minimum, median, maximum) for all clinical laboratory safety parameters, ECGs, pulmonary function tests, and vital signs were provided. ECGs and physical examinations were to be summarized in shift tables to show changes from baseline between normal and abnormal findings.

SMILES: CCCCCc1cc(O)c2c(c1)OC(C)(C)[C@@H]1CCC(C)=C[C@@H]21 [delta-9-THC, delta-9-tetrahydrocannabinol]
- Choice Reaction Time against placebo [1]: significant decrement; also recorded: significant benefit
- Delayed Word Recall Words Correctly Recalled, primary analysis [1]: no significant effect of dose
- Delayed Word Recognition Sensitivity Index, primary analysis [1]: no significant effect of dose
- Delayed Word Recognition Speed against placebo [1]: benefits
- Digit Vigilance Speed, primary analysis [1]: no significant effect of dose
- Digit Vigilance Targets Detected, baseline score [1]: 95.6% and 96.7% and 97.4% and 98.5%
- Immediate Word Recall Words Correctly Recalled, primary analysis [1]: no significant effect of dose
- Numeric Working Memory Sensitivity Index, primary analysis [1]: no significant effect of dose
- Numeric Working Memory Speed, primary analysis [1]: no significant effect of dose
- Picture Recognition Sensitivity Index, primary analysis [1]: no significant effect of dose
- Picture Recognition Speed, primary analysis [1]: no dose*time interaction
- Self-rated Alertness, comparisons against placebo [1]: no decrements
- Self-rated Calmness, primary analysis [1]: no significant effect of dose
- Self-rated Contentment, comparisons [1]: no support for differences between the doses on either day
- Simple Reaction Time, comparisons [1]: did not show any significant differences
- Spatial Working Memory Sensitivity Index against placebo [1]: significant decrement
- Spatial Working Memory Sensitivity Index, primary analysis [1]: significant main effect of dose
- Spatial Working Memory Speed, primary analysis [1]: no significant effect of dose
- Tracking Average Distance from Target, primary analysis [1]: no significant effect of dose
- cognitive function effects (summary) [1]: Minimal cognitive function effects
- heart rate, mean value (ECG) ([2]; Group I (1.2 mg)): 67 bpm
- time for heart rate to return to baseline after dosing ([2]; Group I): ≤ 40 min
- heart rate, mean increase above baseline ([2]; Group I): 4 bpm
- heart rate, mean increase above pre-dose value on Day 1 ([2]; Group I): 13 bpm
- heart rate, mean value (ECG) ([2]; Group II (3.6 mg)): 81 bpm
- time for heart rate to return to baseline after dosing ([2]; Group II): ≤ 240 min
- heart rate, mean increase above baseline ([2]; Group II): 14 bpm
- heart rate, mean increase above pre-dose value on Day 1 ([2]; Group II): 21 bpm
- time of return of QTc towards baseline after dosing ([2]; Group II, first dose): ≤ 1 h
- Individual QTc values ([2]; each assessment time point): less than 450 msec
- QTc individual values ([2]; each assessment time point): < 422 ms
- QTc mean values ([2]; each assessment time point): < 395 ms
- QTc-intervals using Fridericia's correction ([2]; in vivo): no apparent effect
- telemetric cardiac monitoring ([2]; in vivo): no clinically significant abnormalities
- ECG parameters ([2]; single and multiple inhalational dosing): no clinically significant abnormalities or trends
